system: dopamine receptors; assay: not given; settings: only at the 5-HT1A and dopamine receptors; cited from earlier work

| SMILES | interaction at dopamine receptors |
| --- | --- |
| O=C1CC2(CCCC2)CC(=O)N1CCCCN1CCN(c2ncccn2)CC1 [Buspirone] | reasonable potency |

target: muscarinic acetylcholine receptors; assay: inhibition of specific binding of ^3 H-Oxotremorine-M (^3 H-Oxo) to rat cortex; set-up: species or system rat (male Wistar); settings: ^3 H-Oxotremorine 1.0 nM, 30 min, 25° C.
Description: The pharmacological properties of the compounds of the invention can be illustrated by determining their capability to inhibit the specific binding of ^3 H-Oxotremorine-M (^3 H-Oxo). Birdsdall N. J. M., Hulme E. C., and Burgen A. S. V. (1980). "The Character of Muscarinic Receptors in Different Regions of the Rat Brain". Proc. Roy. Soc. London (Series B) 207,1.
^3 H-Oxo labels muscarinic receptor in the CNS (with a preference for agonist domains of the receptors). Three different sites are labeled by ^3 H-Oxo. […] Using the present experimental conditions only the high and medium affinity sites are determined.
The inhibitory effects of compounds on ^3 H-oxo binding reflects the affinity for muscarinic acetylcholine receptors.
All preparations are performed at 0°-4° C. unless otherwise indicated. Fresh cortex (0.1-1 g) from male Wistar rats (150-250 g) is homogenized for 5-10 s in 10 mL […] Hepes pH: 7.4, with an Ultra-Turrax homogenizer. The homogenizer is rinsed with 10 mL of buffer and the combined suspension centrifuged for 15 min. at 40,000×g. The pellet is washed three times with buffer. In each step the pellet is homogenized as before in 2×10 mL of buffer and centrifuged for 10 min. at 40,000×g.
The final pellet is homogenized in 20 mM Hepes pH: 7.4 (100 mL per g of original tissue) and used for binding assay. Aliquots of 0.5 mL is added 25 μL of test solution and 25 μL of ^3 H-Oxotremorine (1.0 nM, final concentration) mixed and incubated for 30 min. at 25° C. Non-specific binding is determined in triplicate using arecoline (1 μg/mL, final concentration) as the test substance. After incubation samples are added 5 mL of ice-cold buffer and poured directly onto Whatman GF/C glass fiber filters under suction and immediately washed 2 times with 5 mL of ice-cold buffer. The amount of radioactivity on the filters are determined by conventional liquid scintillation counting. Specific binding is total binding minus non specific binding.
Test substances are dissolved in 10 mL water (if necessary heated on a steam-bath for less than 5 min.) at a concentration of 2.2 mg/mL. 25-75% inhibition of specific binding must be obtained before calculation of IC50. The test value will be given as IC50 (the concentration (nM) of the test substance which inhibits the specific binding of ^3 H-oxo by 50%).
IC50 =(applied test substance concentration)×(Cx /Co
where Co is specific binding in control assays and Cx is the specific binding in the test assay. (The calculations assume normal mass-action kinetics).

| SMILES | IC50 |
| --- | --- |
| CCCCCSc1nccnc1OC1CN2CCC1CC2 (racemic) [Compound 7, (+/-)-3-Pentylthio-2-(1-azabicyclo[2.2.2]octyl-3-oxy)pyrazine] | 16 nM |
| c1cnc(OC2CN3CCC2CC3)cn1 (racemic) [Compound 8, (+/-)-2-(1-Azabicyclo[2.2.2]octyl-3-oxy)pyrazine] | 1040 nM |
| CCCCCOc1nccnc1OC1CN2CCC1CC2 (racemic) [Compound 9, (+/-)-3-(1-Pentyloxy)-2-(1-azabicyclo[2.2.2]octyl-3-oxy)pyrazine] | 36 nM |
| COc1nccnc1OC1CN2CCC1CC2 (racemic) [Compound 10, (+/-)-3-Methoxy-2-(1-azabicyclo[2.2.2]octyl-3-oxy)pyrazine] | 354 nM |
| CCOc1nccnc1OC1CN2CCC1CC2 (racemic) [Compound 11] | 56 nM |
| CCCCCCSc1nccnc1OC1CN2CCC1CC2 (racemic) [Compound 12, (+/-)-3-(1-Hexylthio)-2-(1-azabicyclo[2.2.2]octyl-3-oxy)pyrazine] | 25 nM |
| CSc1nccnc1OC1CN2CCC1CC2 (racemic) [Compound 13, (+/-)-3-Methylthio-2-(1-azabicyclo[2.2.2]octyl-3-oxy)pyrazine] | 74 nM |
| CCSc1nccnc1OC1CN2CCC1CC2 (racemic) [Compound 14, (+/-)-3-Ethylthio-2-(1-azabicyclo[2.2.2]octyl-3-oxy)pyrazine] | 26 nM |
| CCCSc1nccnc1OC1CN2CCC1CC2 (racemic) [Compound 15] | 14 nM |
| CCCCCCCSc1nccnc1OC1CN2CCC1CC2 (racemic) [Compound 16] | 39 nM |
| Clc1nccnc1O[C@H]1CN2CCC[C@@H]1C2 (relative stereo) [Compound 19, 3-Chloro-2-[endo-(+,-)-6-(1-azabicyclo[3.2.1]octyloxy)]-pyrazine] | 121 nM |
| Cc1nccnc1O[C@H]1CN2CCC[C@@H]1C2 (relative stereo) [Compound 20, 3-Methyl-2-[endo-(+,-)-6-(1-azabicyclo[3.2.1]octyloxy)]-pyrazine] | 245 nM |
| Clc1cncc(O[C@H]2CN3CCC[C@@H]2C3)n1 (relative stereo) [Compound 22, 6-Chloro-2-[endo-(+,-)-6-(1-azabicyclo[3.2.1]octyloxy)]-pyrazine] | 140 nM |
| CCCCOc1nccnc1O[C@H]1CN2CCC[C@@H]1C2 (relative stereo) [Compound 23, 3-(1-butyloxy)-2-[endo-(+,-)-6-(1-azabicyclo[3.2.1]octyloxy)]-pyrazine] | 4.9 nM |
| CCCCSc1nccnc1O[C@H]1CN2CCC[C@@H]1C2 (relative stereo) [Compound 24, 3-(1-butylthio)-2-[endo-(+,-)-6-(1-azabicyclo[3.2.1]octyloxy)]-pyrazine] | 2.2 nM |
| CCCSc1nccnc1O[C@H]1CN2CCC[C@@H]1C2 (relative stereo) [Compound 29, (±)-endo-2-Propylthio-3-(1-azabicyclo[3.2.1]octyl-6-oxy)pyrazine] | 1.7 nM |
| CCCCCSc1nccnc1O[C@H]1CN2CCC[C@@H]1C2 (relative stereo) [Compound 30, (±)-endo-2-Pentylthio-3-(1-azabicyclo[3.2.1]octyl-6-oxy)pyrazine] | 4.4 nM |
| CC(C)CSc1nccnc1O[C@H]1CN2CCC[C@@H]1C2 (relative stereo) [Compound 31, (±)-endo-2-(2-Methylpropylthio)-3-(1-azabicyclo[3.2.1]octyl-6-oxy)-pyrazine] | 3.4 nM |
| CCSc1nccnc1O[C@H]1CN2CCC[C@@H]1C2 (relative stereo) [Compound 32, (±)-endo-2-Ethylthio-3-(1-azabicyclo[3.2.1]octyl-6-oxy)pyrazine] | 3.9 nM |

| SMILES | IC50 |
| --- | --- |
| FC(F)(F)CSc1nccnc1O[C@H]1CN2CCC[C@@H]1C2 (relative stereo) [Compound 33, (±)-endo-2-(2,2,2,-Trifluoroethylthio)-3-(1-azabicyclo[3.2.1]octyl-6-oxy)pyrazine] | 1.5 nM |
| C/C=C/CSc1nccnc1O[C@H]1CN2CCC[C@@H]1C2 (relative stereo) [Compound 34, (±)-endo-2-(trans-2-Butenylthio)-3-(1-azabicyclo[3.2.1]octyl-6-oxy)pyrazine] | 2 nM |
| FC(F)(F)CCCSc1nccnc1O[C@H]1CN2CCC[C@@H]1C2 (relative stereo) [Compound 35, (±)-endo-2-(4,4,4-Trifluorobutylthio)-3-(1-azabicyclo[3.2.1]octyl-6-oxy)pyrazine] | 3.2 nM |
| C=CCSc1nccnc1O[C@H]1CN2CCC[C@@H]1C2 (relative stereo) [Compound 36, (±)-endo-2-(2-propenylthio)-3-(1-azabicyclo[3.2.1]octyl-6-oxy)pyrazine] | 0.34 nM |
| CC(C)CCSc1nccnc1O[C@H]1CN2CCC[C@@H]1C2 (relative stereo) [Compound 37, (±)-endo-2-(3-Methylbutylthio)-3-(1-azabicyclo[3.2.1]octyl-6-oxy)pyrazin] | 1.3 nM |
| FC(F)(F)Oc1ccc(CSc2nccnc2O[C@H]2CN3CCC[C@@H]2C3)cc1 (relative stereo) [Compound 38, (±)-endo-2-(4-Trifluoromethoxybenzylthio)-3-(1-azabicyclo[3.2.1]octyl-6-oxy)pyrazine] | 6.2 nM |
| CCCSc1cncc(O[C@H]2CN3CCC[C@@H]2C3)n1 (relative stereo) [Compound 39, (±)-endo-2-Propylthio-6-(1-azabicyclo[3.2.1]octyl-6-oxy)pyrazine] | 10 nM |
| FC(F)(F)CSc1cncc(O[C@H]2CN3CCC[C@@H]2C3)n1 (relative stereo) [Compound 40, (±)-endo-2-(2.2.2-Trifluoroethylthio)-6-(1-azabicyclo[3.2.1]octyl-6-oxy)pyrazine] | 60 nM |
| COCCSc1nccnc1O[C@H]1CN2CCC[C@@H]1C2 (relative stereo) [Compound 41, (±)-endo-2-(2-methoxyethylthio)-3-(1-azabicyclo[3.2.1octyl-6-oxy)pyrazine] | 3.2 nM |
| C(=Cc1ccccc1)CSc1nccnc1O[C@H]1CN2CCC[C@@H]1C2 (relative stereo) [Compound 42, (±)-endo-2-(3-Phenyl-2-propenylthio)-3-(1-azabicyclo[3.2.1]octyl-6-oxy)pyrazine] | 9.1 nM |
| CC(C)=CCCSc1nccnc1O[C@H]1CN2CCC[C@@H]1C2 (relative stereo) [Compound 43, (±)-endo-2-(4-Methyl-3-pentenylthio)-3-(1-azabicyclo[3.2.1]octyl-6-oxy)pyrazine] | 8.1 nM |
| CCCCSc1nccnc1OCCN(C)C [Compound 17] | 17 nM |
| CCCCSc1nccnc1OCC[N+](C)(C)C [Compound 18, 3-(1-Butylthio)-2-(2-(trimethylamino)ethoxy)pyrazine iodide] | 21 nM |
| c1cnc(O[C@H]2CN3CCC[C@@H]2C3)cn1 [Compound 21, 2-[endo-(+,-)-6-(1-azabicyclo[3.2.1]octyloxy)]-pyrazine] | 26 nM |
| CN1[C@@H]2CC[C@H]1C[C@@H](Oc1cnccn1)C2 [Compound 25, endo-(8-methyl-8-azabicyclo[3.2.1]octyl-3-oxy)pyrazine] | 180 nM |
| CN(C)CCOc1cnccn1 [Compound 26, 2-(2-Dimethylaminoethoxy)pyrazine] | > 1000 nM |
| C[N+](C)(C)CCOc1cnccn1 [Compound 27, 2-(2-Trimethylaminoethoxy)pyrazine iodide] | > 1000 nM |
| CN1CCC[C@H]1COc1cnccn1 [Compound 28, (S)-2-(1-Methyl-2-pyrrolidinylmethoxy)pyrazine] | > 10000 nM |

system: 5-HT1A receptor; assay: not given; settings: only at the 5-HT1A and dopamine receptors; cited from earlier work

| SMILES | interaction at 5-HT1A receptors |
| --- | --- |
| O=C1CC2(CCCC2)CC(=O)N1CCCCN1CCN(c2ncccn2)CC1 [Buspirone] | reasonable potency |

system: M1-sites (muscarinic receptors); assay: not given; settings: cited from earlier work

| SMILES | selectivity for M1-sites |
| --- | --- |
| CN1CCN(CC(=O)N2c3ccccc3C(=O)Nc3cccnc32)CC1 [pirenzepine] | selective for M1 -sites |

Reference: patent US5888999A, “Method for treating anxiety with muscarinic cholinergic receptor agonists” (Eli Lilly and Company, priority 1997, dated 1999)
